These results are taken from US7531713B2, “Assay for toxin induced neuronal degeneration and viability in C. elegans” (Vanderbilt University, priority 2001, dated 2009).

Data set [1] concerns C. elegans DA neurons. Nature of the data set: 6-OHDA assay: GFP signal in DA neurons of Pdat-1::GFP transgenic worms. The data set is classed as in vivo. Conditions: for Protection against 6-OHDA toxicity (GFP signal in DA neurons): coincubated with 6-OHDA, 10 mM test substance. The protocol:
Synchronized cultures of nematodes were prepared by collecting gravid worms from one or two 100 mm 8P/NA22 plates, washing them 2 times in approximately 10 mls dH2O (2,000 rpm for 2 min), and incubating them in alkaline hypochlorite for 7-10 min. essentially as described (Emmons et al., 1979; Epstein and Shakes, 1995). Following the 17-24 hour incubation in M9 to obtain the synchronized L1's, the worms were washed once in 10 mls dH2O, spread on 8P/NA22 plates and incubated at 24° C. for 25-29 hours. The L3 larvae were collected, washed once or twice in dH2O, and added to the assay mix (to a final OD600 worms of 0.1-0.2) containing 10 mM ascorbic acid containing 10 or 50 mM 6-hydroxydopamine +/−10 mM d-amphetamine or 1 mM imipramine. The assay mix (1-2 mls) was incubated for 1 hour at 24° C., and mixed gently every 15 min. The worms were then washed in 0.5-1 ml dH2O as above and spread on NGM/OP50 plates. The worms were examined and scored 40-80 hours post-6-OHDA exposure on 2% agarose pads, using 2% NaN3 to immobilize them. For electron microscopy, the worms are fixed approximately 60 hours following exposure to 6-OHDA.
Scoring of the CEPs were performed by applying approximately 50-60 worms on the agar pad, and examined under a Zeiss M2 fluorescent dissecting scope. All 4 CEP dendrites were examined in each worm and the GFP fluorescence within the dendrites followed from the nerve ring to the tip of the nose. If any part of the dendrite was absent, the worm was considered to have altered CEPs. The DA neurons were examined in living animals using a Zeiss Axioskop with a planApo 40 and 63× objective and a Zeiss LSM410 confocal laser-scanning microscope.
Briefly, the worms are exposed to the neurotoxin (or any other candidate substance) dissolved in a liquid suspension prior to being replated on a solid plate.
Exposure to toxins is carried out by transferring the worms to a solution of water containing 10 mM Ascorbic Acid and 10-50 mM 6OHDA in a final volume of 600 μl. The worms are incubated for 1 hour at 22-24° C. with mixing in silica coated tubes. The exposing is stopped by dilution with 1 ml of water. The tube is then pulsed at 2000 rpm for 2 minutes, resuspended in water and the worms are spread on N6M plates ([…]) coated with OP50 E. coli, which the worms feed on.

For data set [2], the system named is ASI chemosensory neurons. As to the kind of experiment: 6-OHDA exposure of ASI chemosensory neurons with or without transferred DAT-1. It is filed as in vivo, C. elegans. An excerpt: FIGS. 6A, 6B, 6C & 6D. Transfer of the DAT gene product sensitizes non-DA neurons to 6-OHDA. (FIG. 6A), ASI chemosensory neurons made transgenic for a PDAF-7::GFP reporter to reveal these cells and their processes. (FIG. 6B), Worms in FIG. 6A treated with 6-OHDA. […] (FIG. 6C), A transgenic line where PDAF7::DAT1:GFP translational fusion is expressed in the ASI neurons, brining DAT-protein to these cells. (FIG. 6D), Animals in C, exposed to 6-OHDA.

Data set [3] concerns the target T1, CeDAT (Caenorhabditis elegans, UniProt Q03614).
T1 sequence (Q03614 1-615): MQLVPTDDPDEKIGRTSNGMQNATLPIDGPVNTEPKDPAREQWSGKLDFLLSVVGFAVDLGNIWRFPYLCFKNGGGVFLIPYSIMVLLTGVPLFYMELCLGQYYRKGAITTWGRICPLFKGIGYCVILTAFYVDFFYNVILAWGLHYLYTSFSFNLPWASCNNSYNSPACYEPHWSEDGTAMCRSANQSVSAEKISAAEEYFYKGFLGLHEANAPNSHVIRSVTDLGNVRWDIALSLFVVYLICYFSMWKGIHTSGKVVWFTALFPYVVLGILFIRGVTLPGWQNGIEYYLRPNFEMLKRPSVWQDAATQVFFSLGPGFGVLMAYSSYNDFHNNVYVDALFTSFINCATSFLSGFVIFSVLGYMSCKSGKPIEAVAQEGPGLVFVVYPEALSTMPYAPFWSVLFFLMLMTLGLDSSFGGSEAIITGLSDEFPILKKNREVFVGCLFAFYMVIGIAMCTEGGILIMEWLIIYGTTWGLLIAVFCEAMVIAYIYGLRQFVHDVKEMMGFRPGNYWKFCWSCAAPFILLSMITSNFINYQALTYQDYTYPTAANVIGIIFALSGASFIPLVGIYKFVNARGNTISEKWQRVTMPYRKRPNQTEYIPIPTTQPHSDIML
The conditions noted are these: mammalian cells expressing CeDAT, cited from earlier work; for Sensitivity of CeDAT-mediated DA transport to antagonists/substrates: potencies comparable to human DAT.

SMILES strings stand for the structures. “Also recorded” adds a separate entry of the source.

In the case of `NCCc1cc(O)c(O)cc1O` [6-OHDA, 6-hydroxydopamine], in data set [1] (10 mM 6-OHDA for 1 hr, visualized 72 hrs later via confocal microscopy), the “Effect of 6-OHDA on GFP signal in DA neurons” value was “various stages of apparent degeneration are evident”. The “Effect of 6-OHDA on DA neurons / reporter expression” value in data set [1] (10-50 mM 6-OHDA, 1 hour exposure, general statements) is reported as “selectively degraded; also recorded: loss of reporter expression”. The “Neuronal sensitivity to 6-OHDA as a function of time of exposure, dat-1 deletion strain” value in data set [1] (dat-1 mutant line (FIG. 5E)) is listed as “protected”. The “Effect of 6-OHDA on GFP signal in dat-1 deleted strain” value in data set [1] (reporter transgenic line produced in a dat-1 deleted strain (FIG. 5D)) was “failure of toxin to effect loss of GFP signal”. Further, the “Neuronal sensitivity to 6-OHDA as a function of time of exposure” value in data set [1] (wildtype reporter line, CEP neurons (FIG. 5E)) is given as “time dependent loss of CEP neurons”. In addition, in data set [2] (PDAF7::DAT1:GFP translational fusion line (FIG. 6D)), the “Effect of 6-OHDA on ASI neurons expressing DAT-1” value is reported as “conferred 6-OHDA sensitivity”. Besides, the “Effect of 6-OHDA on ASI neurons lacking DAT-1” value in data set [2] (PDAF-7::GFP reporter line (FIG. 6B)) was “little or no effect”.

With `NCCc1ccc(O)c(O)c1` [DA, Dopamine], in data set [3] (read-out: Km of Na+- and Cl--dependent DA transport), the Km (in general, the substrate concentration at which the rate is half of its maximum) was 1.2 µM.

Regarding `C[C@H](N)Cc1ccccc1` [amphetamine, d-amphetamine], in data set [1], the “Protection against 6-OHDA toxicity (GFP signal in DA neurons)” value is recorded as “prevents visible evidence of 6-OHDA toxicity”. Further, the “Sensitivity of CeDAT-mediated DA transport to antagonists/substrates” value (“Sensitivity … to antagonists/substrates” below) in data set [3] is “sensitive”.

`CN(C)CCCN1c2ccccc2CCc2ccccc21` [imipramine]: the “Protection against 6-OHDA toxicity (GFP signal in DA neurons)” value in data set [1] was “prevents visible evidence of 6-OHDA toxicity”. Also, in data set [3], the “Sensitivity … to antagonists/substrates” value is “inhibited”.

`CNCCC(Oc1ccccc1OC)c1ccccc1` (stereo not shown) [nisoxetine]: the “Sensitivity … to antagonists/substrates” value in data set [3] is listed as “inhibited”.
